Among the data in US7354571B2, “Photoprotective compositions comprising methyltrialkylsilanes containing a cinnamate, cinnamamide, benzalmalonamide or benzalmalonate function” (L'Oreal, priority 2003, dated 2008) are λmax, E1% and εmax values, retold here.

A short description of this data set: UV absorption in ethanol. The format is physicochemical. The settings on record: for E1% / εmax: at λmax.

In the case of `COC(=O)C(=Cc1ccc(OC[Si](C)(C)C)cc1)C(=O)OC` [Example 1, dimethyl 2-(4-trimethylsilanylmethoxy)benzylidenemalonate], the λmax result is “λmax = 317 nm,”, the E1% entry is reported as “E1% = 840” and the εmax result is “εmax = 27 085,”. Besides, for the setting “listed as Example 2”, the E1% entry is reported as “E1% = 820” and the εmax entry was “εmax = 26 440,”.
Consider `CC(C)(C)COC(=O)C(=Cc1ccc(OC[Si](C)(C)C)cc1)C(=O)OCC(C)(C)C` [Example 5, dineopentyl 2-(4-trimethylsilanylmethoxy)benzylidenemalonate], for which the λmax result is “λmax = 317 nm,”, the E1% result was “E1% = 592” and the εmax entry is given as “εmax = 25 730,”.
On the same counts, the results for `COc1ccc(C=C(C(=O)OC[Si](C)(C)C)C(=O)OC[Si](C)(C)C)cc1` [Example 13, di(methyltrimethylsilanyl) 2-(4-methoxybenzylidene)malonate] are “λmax = 313 nm,”, “E1% = 653” and “εmax = 25 770,”.
On the same counts, the results for `C[Si](C)(C)COc1ccc(C=C(C(N)=O)C(N)=O)cc1` [Example 10, 2-[4-(trimethylsilanylmethoxy)benzylidene]malonamide] are “λmax = 310 nm,”, “E1% = 696” and “εmax = 20 350,”.
`CC(C)COC(=O)C(=Cc1ccc(OC[Si](C)(C)C)cc1)C(=O)OCC(C)C` [Example 4, diisobutyl 2-(4-trimethylsilanylmethoxy)benzylidenemalonate]: the λmax entry is listed as “λmax = 316 nm,”, the E1% entry is on record as “E1% = 663” and the εmax result is reported as “εmax = 26 960,”.
On the same counts, the results for `CCOC(=O)C(=Cc1ccc(OC[Si](C)(C)C)cc1)C(=O)OCC` [Example 3, diethyl 2-(4-trimethylsilanylmethoxy)benzylidenemalonate] are “λmax = 316 nm,”, “E1% = 750” and “εmax = 26 290,”.
For the compound `CC1(C)OC(=O)C(=Cc2ccc(OC[Si](C)(C)C)cc2)C(=O)O1` [Example 6, 2,2-dimethyl-5-[4-(trimethylsilanylmethoxy)benzylidene]-1,3-dioxane-4,6-dione], the λmax result is given as “λmax = 370 nm,”, the E1% result was “E1% = 756” and the εmax entry is recorded as “εmax = 25 230,”.
With `COC(=O)C(=Cc1ccc(OC[Si](C)(C)COc2ccc(C=C(C(=O)OC)C(=O)OC)cc2)cc1)C(=O)OC` [Example 9, dimethyl 2-(4-{[({4-[3-methoxy-2-(methoxycarbonyl)-3-oxoprop-1-enyl]phenoxy}methyl)(dimethyl)silyl]methoxy}benzylidene)malonate], the λmax result is “λmax = 316 nm,”, the E1% entry is “E1% = 903” and the εmax entry is reported as “εmax = 50 270,”.
On the same counts, the results for `CC(C)OC(=O)/C=C/c1ccc(OC[Si](C)(C)C)cc1` [Example 11, isopropyl 2-(4-trimethylsilanylmethoxy)cinnamate] are “λmax = 310 nm,”, “E1% = 711” and “εmax = 20 800,”.
Regarding `CCCCC(CC)COC(=O)C(=Cc1ccc(OC[Si](C)(C)C)c(OC)c1)C(=O)OCC(CC)CCCC` (centres unmarked) [Example 7, bis(2-ethylhexyl) 2-[3-methoxy-4-(trimethylsilanylmethoxy)benzylidene]malonate], the λmax entry is given as “λmax = 331 nm,”, the E1% entry was “E1% = 331” and the εmax result is “εmax = 18 170,”.
